We go through one molecule from patent publication US20110311484A1, “STRAINS OF […] LEUKEMIA-RELATED VIRUS AND METHODS FOR DETECTION THEREOF” (Whittemore Peterson Institute for Neuro-Immune Disease, priority 2010, published 2011).

In this assay the test system is XMRV. Briefly: XMRV Env expression in PHA/IL-2 activated PBMC cultures, staining with SFFV env moAb. It is filed as cell-based. To be noted: PBMCs of XMRV-infected individuals, PHA/IL-2 activated for three days; inhibitor (50 nM AZT, FIG. 3) added prior to activation. The procedure: XMRV RNA could not always be detected in the PBMCs of subjects from which infectious virus had been isolated from plasma. […] We have observed that culturing these PBMCs under conditions that induce activation of T cells increases the frequency of XMRV detected by RT-PCR in the cells maintained in culture. […] To biologically increase the level of XMRV and increase the probability that XMRV sequences could be detected by PCR, PBMCs were cultured under conditions that activated T cells for 7-10 days, the RNA isolated, and nested RT-PCR analysis performed as described above.

In the case of `Cc1cn([C@H]2C[C@H](N=[N+]=[N-])[C@@H](CO)O2)c(=O)[nH]c1=O` [reverse transcriptase inhibitor, zidovudine], the “XMRV expression, as measured by cell surface expression of Env” value was “prevents the increase XMRV expression”.
